Patent US20250263677A1, “BIOCATALYTIC USE OF NONHEME IRON PROTEINS FOR MOLECULAR FUNCTIONALIZATION” (The Johns Hopkins University, priority 2022, published 2025)
Read-outs that look alike come from different tables or passages of the source.

What was measured:
Assay type in all cases: biochemical
[1] = Replacement of azide with other halide or pseudohalide anions, Sav HppD Az1 cell lysate
Description: We also tried to extend the scope of N-radical precursors and replace azide with other halide or pseudohalide anions, the results of which analyses are summarized in TABLE 5. For these analyses. ferrous ammonium sulfate (10 μL, 100 mM in water), sodium halide or pseudohalide solution (10 μL, 1 M in water), and N-fluoroamide substrate 1NF (10 μL, 400 mM in DME) were added to a 2 mL vial containing Sav HppD Az1 cell lysate (400 μL, obtained from OD600=20 cell suspension) in an anerobic chamber. The vial was capped and shaken at 680 rpm at room temperature for 24 hours. At the end of the reaction, the vial was opened and the reaction was quenched with 0.8 mL of a hexanes/ethylacetate solution (4:6 v/v) of internal standard 1,2,3-trimethoxybenzene (0.5 mM final concentration). The reaction mixture was transferred to a 2 mL microcentrifuge tube, vortexed (10 seconds, 3 times), then centrifuged (14,000×g, 5 min) to completely separate the organic and aqueous layers. […]

[2] = target: Streptomyces avermitilis (4-hydroxyphenyl)pyruvate dioxygenase (Sav HppD) variant Az1 V189A F216A P243A N245Q Q255A L367I, SEQ ID NO: 2 (Streptomyces avermitilis, UniProt Q53586, F216A/L367I/N245Q/P243A/Q255A/V189A); assay: Kinetic analysis of 1NF azidation by purified Sav HppD Az1 (anaerobic, GCMS product quantification); details: Az1 vs wt
Streptomyces avermitilis (4-hydroxyphenyl)pyruvate dioxygenase (Sav HppD) variant Az1 V189A F216A P243A N245Q Q255A L367I, SEQ ID NO: 2, sequence (Q53586 whole entry V189A/F216A/P243A/N245Q/Q255A/L367I): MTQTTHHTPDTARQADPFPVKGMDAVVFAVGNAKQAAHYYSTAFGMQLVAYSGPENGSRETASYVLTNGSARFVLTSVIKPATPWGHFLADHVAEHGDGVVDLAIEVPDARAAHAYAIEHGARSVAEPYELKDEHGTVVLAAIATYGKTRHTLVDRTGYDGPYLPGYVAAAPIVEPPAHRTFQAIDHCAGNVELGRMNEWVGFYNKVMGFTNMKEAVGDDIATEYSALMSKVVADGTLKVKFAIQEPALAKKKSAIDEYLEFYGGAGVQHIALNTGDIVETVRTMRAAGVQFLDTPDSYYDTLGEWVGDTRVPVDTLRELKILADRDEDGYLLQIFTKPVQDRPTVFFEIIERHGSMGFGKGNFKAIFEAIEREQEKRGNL
Description: (§1) FIG. 10 is a series of plots which summarize kinetics for non-heme iron enzyme mediated azidation reactions. The leftmost plot provides kinetics data for wild-type Sav HppD. The middle plot provides kinetics data for Az1 Sav HppD. The rightmost plot provides kinetics data for Az2 Sav HppD.
(§2) Protein expression was conducted following the protocols detailed in section (B). E. coli cells expressing non-heme iron enzyme variants were pelleted (4,000×g, 5 min, 4° C.) and stored at −20° C. for at least 24 hours. The cell pallet was then resuspended in 50 mM KPi buffer containing 100 mM NaCl and 20 mM imidazole (pH 7.5 at 25° C.) (10 mL buffer per gram of cell pellet). […] Fractions containing purified proteins were detected by SDS-PAGE, pooled and concentrated using Millipore® centrifugal filter. […] Final concentration was measured by absorbance at 280 nm using a NanoDrop spectrophotometer. The theoretical extinction coefficients (M^−1 cm^−1) used for Say HppD and its variants were calculated using ExPASy Bioinformatics Resources Portal. […]
(§3) Kinetic analyses for wild-type Sav HppD, Az1, and Az2 mediated 1NF azidation were performed in an anaerobic chamber. […] After centrifugation at 12,000 rpm for 10 mins, an aliquot (200 μL) of the organic layer was taken for GCMS analysis for product quantification.

[3] = target: Streptomyces avermitilis (4-hydroxyphenyl)pyruvate dioxygenase (Sav HppD) variant Az2 V189A N191A S230L P243G N245F Q255P L367I, SEQ ID NO: 3 (Streptomyces avermitilis, UniProt Q53586, L367I/N191A/N245F/P243G/Q255P/S230L/V189A); assay: Kinetic analysis of 1NF azidation by purified Sav HppD Az2 (anaerobic, GCMS product quantification); details: comparator not given
Streptomyces avermitilis (4-hydroxyphenyl)pyruvate dioxygenase (Sav HppD) variant Az2 V189A N191A S230L P243G N245F Q255P L367I, SEQ ID NO: 3, sequence (Q53586 whole entry V189A/N191A/S230L/P243G/N245F/Q255P/L367I): as the sequence (Q53586 whole entry V189A/F216A/P243A/N245Q/Q255A/L367I) above, with N191A, A216F, S230L, A243G, Q245F, A255P counted along it
Description: as §1, §2, §3

[4] = Sav HppD Az1 cell lysate (OD600=20), 1NF, GCMS peak area over internal standard, 24 hours

Compound	IA/internal [1, 4]	IF/internal [1, 4]	also measured
N#C[O-].[Na+] [NaOCN]	2.1	0.03	
[F-].[Na+] [NaF]	2.5	0.04	
O=N[O-].[Na+] [NaNO2]			IA/internal [1]: 1.9; IF/internal [1]: 0.03
N#C[S-].[Na+] [NaSCN]	2.7	0.05	
CCc1ccccc1C(=O)N(F)C(C)(C)C [1NF, N-(tert-butyl)-2-ethyl-N-fluorobenzamide]			increase in KM over the wild-type enzyme [2]: 1.7 fold; increase in kcat over the wild-type enzyme [2]: 4.1 fold; decrease in KM [3]: 6.6 fold; decrease in kcat [3]: 9 fold
[Br-].[Na+] [NaBr]	2.4	0.04	
[Cl-].[Na+] [NaCl]			IA/internal [1]: 2.3; IF/internal [1]: 0.04
